Assay results taken from patent publication US20250195468A1, “METHODS AND COMPOSITIONS FOR TREATING COLORECTAL CANCER WITH INDOXYL SULFATE” (National Institute of Immunology, priority 2023, published 2025).
Counter-ions that a name gives are not always drawn.

What was measured:
[1] = test system: human adenocarcinoma cells; assay: Comet assay (DNA damage); assay type: cell-based; conditions: cell lysate after IS treatment
Procedure: In the in vitro study, cells were exposed to various doses of indoxyl sulfate ranging from 0.038 mM to 10 mM for three different incubation periods (24 hours, 48 hours, and 72 hours). A decrease in cell proliferation efficiency was observed after 48 hours of treatment, with the most significant effects observed at concentrations of 5 mM and 10 mM of indoxyl sulfate. […] Decrease in cellular ATP content indicates the diminished cellular metabolic activity and may be linked with cell death. Considering these findings. the apoptotic effect of indoxyl sulfate was examined. […] Another study on the osteoblast cell line MC3T3-E1 also confirmed that IS acts as a bone toxin by inducing cell apoptosis and inhibiting differentiation. […] To account for this study. cells were also assessed for oxidative stress in this invention by staining them with […] (DHE) after 48 hours of treatment. […] The potential for IS to cause DNA damage was also investigated.

[2] = test system: HCT-116 cells; assay: Clonogenic (colony forming) assay; assay type: cell-based, human; conditions: HCT-116, 1.25-10 mM for 48 hours, 10 days colony growth
Procedure: (§1) To assess the colony-forming ability of cells after treatment with IS, a colony forming assay was performed. HCT-116 and HT-29 cells were cultured in 6-well plates at a density of 2×10^5 cells per well. After 24 hours of seeding, the cells were exposed to IS at concentrations of 1.25 mM, 5 mM, and 10 mM. Following a 48-hour treatment period, the cells were harvested using trypsin and counted for each treatment. From each treatment group, 400, 800, and 1200 cells were plated and incubated for 10 days in 6-well plates. During the incubation period, the media were replenished every alternate day. After 10 days, the colonies were washed with PBS and stained with 0.5% crystalline violet. The cells were then fixed with 6% glutaraldehyde. The colonies were visualized and counted using ImageJ software. The clonogenic efficiency of the treated cells was compared to that of the untreated cells.

[3] = test system: HT-29 cells; assay: Clonogenic (colony forming) assay; assay type: cell-based, human; conditions: HT-29, 1.25-10 mM for 48 hours, 10 days colony growth
Procedure: as §1

[4] = test system: HCT-116 cells; assay: Membrane integrity by LDH assay; assay type: cell-based, human; conditions: 48 hours, 0.1% Triton X-100 = 100%
Procedure: (§2) Membrane integrity was assessed using the LDH based in vitro toxicology kit obtained from Sigma-Aldrich. The assay was conducted following the manufacturer's protocol. HCT-116 and HT-29 cells were cultured in a 96-well plate at a density of 10,000 cells per well. After 24 hours of seeding, the cells were treated with IS at concentrations of 1.25 mM, 5 mM, and 10 mM. Following a 48-hour treatment period, the cells were centrifuged, and 100 μl of supernatant was collected into a fresh 96-well plate to measure the amount of LDH released into the media by necrotic cells. Subsequently, 100 μl of the dosing reagent was added and incubated for 30 minutes at 37° C. After incubation, 20 μl of […] stop solution was added. Absorbance was measured at 690 nm and 490 nm using a ClarioStar plate reader (BMG Labtech, Ortenberg, Germany). The background absorbance at 690 nm was subtracted from the 490 nm absorbance. For the positive control, 0.1% Triton X-100 was used and considered as maximum LDH release. Untreated cells served as the negative control. The membrane integrity of IS-exposed cells was compared to that of untreated cells. The following formula was used to calculate the LDH release from the cells: Experimental LDH release (OD490)×100/maximum LDH release (OD490).

[5] = test system: HT-29 cells; assay: Membrane integrity by LDH assay; assay type: cell-based, human; conditions: 48 hours, 0.1% Triton X-100 = 100%
Procedure: as §2

[6] = test system: HCT-116 cells; assay: Apoptosis assay, Annexin V-FITC/PI flow cytometry; assay type: cell-based, human; conditions: for apoptotic percentage: 48 hours, untreated 3%
Procedure: (§3) The apoptotic effect of IS was evaluated on HCT-116 and HT-29 cells using the propidium iodide (PI)/Annexin V-fluorescein isothiocyanate (FITC) dual staining kit (ab14085: Abcam, USA). Duplicate wells of cells were cultured at a density of 3×10^5 cells per well in 6-well plates. After 24 hours of seeding, the cells were treated with IS at concentrations of 1.25 mM, 5 mM, and 10 mM. Following a 48-hour treatment period, the cells were harvested using trypsin and washed twice with PBS. After the washing steps, the cells were resuspended in 1 ml of fresh media and counted at each concentration using a hematocytometer. From each concentration, 2×10^5 cells were taken and dissolved in 500 μl of binding buffer, 5 μl of PI, and 5 μl of Annexin V-FITC. The cells were then incubated in the dark at room temperature for 30 minutes. Subsequently, the cells were analyzed for apoptosis using flow cytometry (BD Biosciences, FACS Canto™ Flow Cytometer, Germany) at 488 nm. Untreated cells were used as controls for comparison.

[7] = test system: HT-29 cells; assay: Apoptosis assay, Annexin V-FITC/PI flow cytometry; assay type: cell-based, human; conditions: for apoptotic percentage: 48 hours, untreated 3%
Procedure: as §3

[8] = test system: HCT-116 cells; assay: Cell cycle assay, PI flow cytometry; assay type: cell-based, human; conditions: HCT-116, 48 hours, 5 mM and 10 mM (not resolved); increased from 18.1±1.99
Procedure: (§4) The evaluation of the effect of IS on the progression of HCT-116 and HT-29 cell cycle assay involved analysing the G0/G1 phase, Synthesis(S) phase, and G2/M phase. Cells were initially cultured in a 6-well plate with a seeding density of (2×10^5) cells/well in duplicate. After 24 hours of seeding, the cells were treated with varying concentrations of IS (1.25 mM, 5 mM, and 10 mM). Following a 48-hour processing period, the cells were detached using trypsin and washed twice with refrigerated PBS. The resulting cell pellet was then dissolved in 200 ul of chilled PBS and fixed by adding 800 ul of 70% ethanol dropwise. The samples were stored at −20° C. overnight for later use. After the overnight incubation, the cells were centrifuged at 2000 rpm for 5 minutes at 4° C. The pellet was dissolved in 300 ul of PBS, 50 ul of RNase A (100 ug/ml), and 35 ul of Triton X-100 (0.1%), and incubated at 37° C. for 30 minutes. Subsequently, 20 ul of PI was added from a stock solution of 500 μg/ml, and the samples were incubated in the dark for an additional 30 minutes. Flow cytometry (BD Biosciences, FACS Verse, Germany) was employed to measure PI staining in 1×10^3 cells. The Flow Jo software was utilized for the analysis of cell distribution across the different phases of the cell cycle.

[9] = test system: HT-29 cells; assay: Cell cycle assay, PI flow cytometry; assay type: cell-based, human; conditions: HT-29, 48 hours, 5 mM and 10 mM (not resolved); increased from 14.2±0.5
Procedure: as §4

[10] = 10 mM, 48-hour treatment, stated for cells in general

O=S(=O)(O)Oc1c[nH]c2ccccc12 [IS, Indoxyl Sulfate]
DNA damage (comet formation) [1]: does not show formation of any comet
number of colonies formed compared to control [2]: significant reduction in the number of colonies formed
number of colonies formed compared to control [3]: significant reduction in the number of colonies formed
LDH release in the supernatant ([4]; HCT-116, 5 mM): 80%
LDH release in the supernatant ([4]; HCT-116, 10 mM): 86%
LDH release in the supernatant ([5]; HT-29, 5 mM): 82%
LDH release in the supernatant ([5]; HT-29, 10 mM): 85%
increase in cell apoptosis compared to the control [6, 10]: 10%
apoptotic percentage ([6]; HCT-116, 5 mM): 9%
apoptotic percentage ([6]; HCT-116, 10 mM): 13%
increase in cell apoptosis compared to the control [7, 10]: 10%
apoptotic percentage ([7]; HT-29, 5 mM): 8%
apoptotic percentage ([7]; HT-29, 10 mM): 12%
number of cells in the G2/M phase [8]: 22.7±3.2
number of cells in the G2/M phase [9]: 17.3±0.7
